IC50, GI50 and fraction unbound data for three compounds are collected here from patent publication US11945812B2, “Annulated 2-amino-3-cyano thiophenes and derivatives for the treatment of cancer” (Boehringer Ingelheim International GmbH, priority 2020, dated 2024).

Ba/F3 cells bearing a KRAS G12C mutation, sequence (P01116 whole entry G12C): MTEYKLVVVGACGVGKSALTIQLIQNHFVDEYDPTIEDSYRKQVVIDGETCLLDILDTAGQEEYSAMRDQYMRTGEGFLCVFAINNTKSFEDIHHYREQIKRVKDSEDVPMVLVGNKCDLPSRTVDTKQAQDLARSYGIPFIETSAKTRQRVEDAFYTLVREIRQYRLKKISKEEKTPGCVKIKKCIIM

The first series concerns NCI-H358 cells. Nature of the series: NCI-H358 CTG proliferation assay (120 h) (NSCLC). Type of series: cell-based. To be noted: Homo sapiens, read-out: IC50 NCl-H358. The procedure:
NCI-H358 CTG Proliferation Assay (120 h) (NSCLC)
NCI-H358 cells (ATCC No. CRL-5807) were dispensed into white bottom opaque 96 well plates (Perkin Elmer cat no. 5680) at a density of 2000 cells per well in 100 μL RPMI-1640 ATCC-Formulation (Gibco # A10491)+10% FCS. Cells were incubated overnight at 37° C. in a humidified tissue culture incubator at 5% CO2. Compounds (10 mM stock in DMSO) were added at logarithmic dose series using the HP Digital Dispenser D300 (Tecan), normalizing for added DMSO. For the TO time point measurement, untreated cells were analyzed at the time of compound addition. Plates were incubated for 120 hours, and cell viability was measured using CellTiter-Glo luminescent cell viability reagent (Promega product code G7570). Viability (stated as percent of control) is defined as relative luminescence units RLU of each well divided by the RLU of cells in DMSO controls. IC50 values were determined from viability measurements by non-linear regression using a four parameter model.
The IC50 is the midpoint of a concentration-inhibition curve. With `C=CC(=O)N1CCN(c2cc(O[C@@H](C)[C@@H]3CCCN3C)nc(-c3cc(C4(C)CCCc5sc(N)c(C#N)c54)on3)n2)CC1` (some centres unmarked) [Ib-6], the IC50 worked out at 1.67 nM.
Regarding `C=C(F)C(=O)N1CCN(c2cc(O[C@@H](C)[C@@H]3CCCN3C)nc(-c3cc([C@@]4(C)CCCc5sc(N)c(C#N)c54)on3)n2)[C@H](C)C1` [Ib-10], the IC50 is 40.6 nM.
The same measure, in the same setting: in the case of `C=C(F)C(=O)N1[C@@H](C)CN(c2cc(O[C@@H](C)[C@@H]3CCCN3C)nc(-c3cc([C@@]4(C)CCCc5sc(N)c(C#N)c54)on3)n2)C[C@@H]1C` [Ib-11] it was 34.6 nM.

Another series has as its target Ba/F3 cells bearing a KRAS G12C mutation (Homo sapiens, UniProt P01116, G12C, cells depend on it). Nature of the series: Ba/F3 cell model proliferation assay (AlamarBlue, 72 h). Conditions: Ba/F3 KRAS G12C cells, 72 h, 10% FCS, uncorrected; read-out: IC50 Ba/F3 KRASG12C. Type of series: cell-based. Here is the method:
Ba/F3 Cell Model Generation and Proliferation Assay
Plasmids containing KRASG12 mutants were obtained from GeneScript. To generate KRASG12-dependent Ba/F3 models, Ba/F3 cells were transduced with retroviruses containing vectors that harbor KRASG12 isoforms. Platinum-E cells (Cell Biolabs) were used for retrovirus packaging. Retrovirus was added to Ba/F3 cells. To ensure infection, 4 μg/mL polybrene was added and cells were spinfected. […] Cells with an infection efficiency of 10% to 20% were further cultivated and puromycin selection with 1 μg/mL was initiated. As a control, parental Ba/F3 cells were used to show selection status. Selection was considered successful when parental Ba/F3 cells cultures died. To evaluate the transforming potential of KRASG12 mutations, the growth medium was no longer supplemented with IL-3. Ba/F3 cells harboring the empty vector were used as a control. Approximately ten days before conducting the experiments, puromycin was left out.
All treatments were performed in technical duplicates. The assay is run using a fully automated robotic system. Treated cells were incubated for 72 h at 37° C. with 5% CO2. AlamarBlue™ (ThermoFisher), a viability stain, was added and fluorescence measured in the PerkinElmer Envision HTS Multilabel Reader.
In the case of `C=CC(=O)N1CCN(c2cc(O[C@@H](C)[C@@H]3CCCN3C)nc(-c3cc(C4(C)CCCc5sc(N)c(C#N)c54)on3)n2)CC1` (some centres unmarked) [Ib-6], the GI50 worked out at 1.6 nM.
The same measure, in the same setting: the value for `C=C(F)C(=O)N1CCN(c2cc(O[C@@H](C)[C@@H]3CCCN3C)nc(-c3cc([C@@]4(C)CCCc5sc(N)c(C#N)c54)on3)n2)[C@H](C)C1` [Ib-10] was 13.1 nM; that for `C=C(F)C(=O)N1[C@@H](C)CN(c2cc(O[C@@H](C)[C@@H]3CCCN3C)nc(-c3cc([C@@]4(C)CCCc5sc(N)c(C#N)c54)on3)n2)C[C@@H]1C` [Ib-11] was 12.6 nM.

The series is the same for the next values; noted with them: corrected by plasma protein binding in 10% FCS (fraction unbound); read-out: IC50 Ba/F3 KRASG12C (corrected).
As to `C=CC(=O)N1CCN(c2cc(O[C@@H](C)[C@@H]3CCCN3C)nc(-c3cc(C4(C)CCCc5sc(N)c(C#N)c54)on3)n2)CC1` (some centres unmarked) [Ib-6], the GI50 was 0.27 nM.
Consider `C=C(F)C(=O)N1CCN(c2cc(O[C@@H](C)[C@@H]3CCCN3C)nc(-c3cc([C@@]4(C)CCCc5sc(N)c(C#N)c54)on3)n2)[C@H](C)C1` [Ib-10], for which the GI50 stood at 0.83 nM.
Take `C=C(F)C(=O)N1[C@@H](C)CN(c2cc(O[C@@H](C)[C@@H]3CCCN3C)nc(-c3cc([C@@]4(C)CCCc5sc(N)c(C#N)c54)on3)n2)C[C@@H]1C` [Ib-11]: the GI50 came out at 0.57 nM.

A further series relates to MiaPaCa-2 cells. Nature of the series: MiaPaCa-2 CTG proliferation assay (pancreatic cancer). Type of series: cell-based. Conditions: Homo sapiens, MIA PaCa-2, 120 h; MiaPaCa-2 CTG proliferation, 5 days; read-out: IC50 MiaPACA2. Here is the method:
MiaPaCa-2 CTG Proliferation Assay (Pancreatic Cancer)
MiaPaCa-2 cells (ATCC® CRM-CRL-1420™) were grown in cell culture flasks (175 cm^2) using DMEM medium supplemented with 10% fetal bovine serum. […] Materials used for the assay were CulturPlate-384, White Opaque 384-well microplate, Sterile and Tissue Culture Treated (Perkin Elmer #6007680), DMEM medium and FBS # SH30071.03 (HyClone).
(§1) The proliferation assays started (day1) with seeding cells in flat bottom 384 well microtiter plates in 90 μL DMEM medium supplemented with 10% FBS at a density of 500 cells/well. Any other luminescence compatible plate format is possible. On day 2, 10 μL dilutions of the test compounds covering a concentration range between app. 0, 1 and 10.000 nM were added to the cells. Cells were incubated for 5 days in a humidified, incubator with 5% CO2 at 37° C. On day 7 100 μl of Cell Titer Glow reagent (Cell titer Glo Luminescent Cat. No. G7571, Promega) were added to each well and incubated for additional 10 min at room temperature (with agitation). Luminescence was measured on a Wallac Victor using standard luminescence read out. IC50 values were calculated using standard Levenburg Marquard algorithms (GraphPad Prism).
For the compound `C=CC(=O)N1CCN(c2cc(O[C@@H](C)[C@@H]3CCCN3C)nc(-c3cc(C4(C)CCCc5sc(N)c(C#N)c54)on3)n2)CC1` (some centres unmarked) [Ib-6], the IC50 was found to be 9 nM.
On the same count and under the same terms, the value for `C=C(F)C(=O)N1CCN(c2cc(O[C@@H](C)[C@@H]3CCCN3C)nc(-c3cc([C@@]4(C)CCCc5sc(N)c(C#N)c54)on3)n2)[C@H](C)C1` [Ib-10] was 56.8 nM.
Take `C=C(F)C(=O)N1[C@@H](C)CN(c2cc(O[C@@H](C)[C@@H]3CCCN3C)nc(-c3cc([C@@]4(C)CCCc5sc(N)c(C#N)c54)on3)n2)C[C@@H]1C` [Ib-11]: the IC50 was determined as 105 nM.

System in the next series: not listed separately
Nature of the series: Plasma protein binding (equilibrium dialysis), human plasma. To be noted: read-out: PPB human fu. Type of series: in vitro ADME. Here is the method:
Plasma Protein Binding (PPB)
Binding of test compound to plasma was determined using equilibrium dialysis (ED) and quantitative mass spectrometry interfaced with liquid chromatography (LC-MS). In brief, ED was performed with dialysis devices consisting of two chambers separated by a semipermeable membrane with a molecular weight cut-off of 5-10 kg/mol. One chamber was filled with commercially sourced plasma (mouse and human plasma, respectively) or serum (10% FCS in PBS) containing 1-10 μmol/L test compound and the other chamber was filled with phosphate-buffer saline (PBS) with or without dextran. The dialysis chamber was incubated for 3-5 hours at 37° C. After incubation, protein was precipitated from aliquots of each chamber and the concentration of test compound in the supernatant of the plasma-containing compartment (cplasma) and of the buffer-containing compartment (Cbuffer) was determined by LC-MS. The fraction of unbound test compound (not bound to plasma) (fu) was calculated according to the following equation: […]
(Equilibrium dialysis compares concentrations on both sides of a semipermeable membrane.)
`C=CC(=O)N1CCN(c2cc(O[C@@H](C)[C@@H]3CCCN3C)nc(-c3cc(C4(C)CCCc5sc(N)c(C#N)c54)on3)n2)CC1` (some centres unmarked) [Ib-6]: the fraction unbound was 0.059.
`C=C(F)C(=O)N1CCN(c2cc(O[C@@H](C)[C@@H]3CCCN3C)nc(-c3cc([C@@]4(C)CCCc5sc(N)c(C#N)c54)on3)n2)[C@H](C)C1` [Ib-10]: the fraction unbound came out at 0.013.

Another series deals with SW837 cells. Nature of the series: SW837 CTG proliferation assay (CRC). Type of series: cell-based. Conditions: Homo sapiens; SW837 CTG proliferation; read-out: IC50 SW837. The procedure: SW837 CTG Proliferation Assay (CRC)
SW837 cells (ATCC #CCL-235) were grown in cell culture flasks (175 cm^2) using L-15 10% FCS, 1% L-Glu, 1×NEAA and 1×Na-Pyrovat. Cultures were incubated at 37° C. and 0% CO2 in a humidified atmosphere, with medium change or subcultivation 2-3 times a week. Materials used for the assay were CulturPlate-384, White Opaque 384-well Microplate, Sterile and Tissue Culture Treated (Perkin Elmer #6007680), Leibovitz L15 Medium and FBS # SH30071.03 (HyClone).
as §1, with “L-15” for “DMEM medium supplemented with”, “FCS, 1% L-Glu, 1×NEAA and 1× Na-Pyrovat” for “FBS”, “humidified, CO2 controlled (no CO2)” for “humidified,”, “incubator” for “incubator with 5% CO2”, “μL” for “μl”
`C=CC(=O)N1CCN(c2cc(O[C@@H](C)[C@@H]3CCCN3C)nc(-c3cc(C4(C)CCCc5sc(N)c(C#N)c54)on3)n2)CC1` (some centres unmarked) [Ib-6]: the IC50 is below 1 nM.
On the same count and under the same terms, the value for `C=C(F)C(=O)N1CCN(c2cc(O[C@@H](C)[C@@H]3CCCN3C)nc(-c3cc([C@@]4(C)CCCc5sc(N)c(C#N)c54)on3)n2)[C@H](C)C1` [Ib-10] was 14.9 nM; that for `C=C(F)C(=O)N1[C@@H](C)CN(c2cc(O[C@@H](C)[C@@H]3CCCN3C)nc(-c3cc([C@@]4(C)CCCc5sc(N)c(C#N)c54)on3)n2)C[C@@H]1C` [Ib-11] was 5.63 nM.

The test system of the next series is ERK phosphorylation in NCI-H358_Cas9_SOS2. Nature of the series: ERK phosphorylation assay 2 (AlphaLISA SureFire Ultra p-ERK1/2), SOS2 knock-out. Type of series: cell-based. Conditions: Homo sapiens, NCI-H358; assay 2 (marked with *); read-out: IC50 H358 pERK. From the text:
ERK Phosphorylation Assay
Materials Used for the Assay;
In general terms: Alpha assays give light when donor and acceptor beads are brought close together.
Consider `C=CC(=O)N1CCN(c2cc(O[C@@H](C)[C@@H]3CCCN3C)nc(-c3cc(C4(C)CCCc5sc(N)c(C#N)c54)on3)n2)CC1` (some centres unmarked) [Ib-6], for which the IC50 was 2 nM.
For the compound `C=C(F)C(=O)N1CCN(c2cc(O[C@@H](C)[C@@H]3CCCN3C)nc(-c3cc([C@@]4(C)CCCc5sc(N)c(C#N)c54)on3)n2)[C@H](C)C1` [Ib-10], the IC50 came to 32.8 nM.
`C=C(F)C(=O)N1[C@@H](C)CN(c2cc(O[C@@H](C)[C@@H]3CCCN3C)nc(-c3cc([C@@]4(C)CCCc5sc(N)c(C#N)c54)on3)n2)C[C@@H]1C` [Ib-11]: the IC50 was found to be 44.4 nM.
